Results taken from the NIST ThermoML archive (doi:10.1021/je034053i).

Tests used:
[1] = 298.15 K; for surface tension liquid-gas: Drop volume; for mass density: 101.33 kPa, Liquid
[2] = refractive index (Na D-line) (dimensionless); conditions: 298.15 K; 101.33 kPa; Liquid; Standard Abbe refractometry
[3] = xn = mol fraction of the nth substance listed; conditions: 298.15 K; for surface tension liquid-gas: Drop volume; for mass density: 101.3 kPa, Liquid
[4] = refractive index (Na D-line) (dimensionless); xn = mol fraction of the nth substance listed; conditions: 298.15 K, 101.3 kPa, Liquid, Standard Abbe refractometry

CCCO [propan-1-ol]
Conditions	mass density [kg/m3]	refractive index	surface tension liquid-gas [mN/m]
[1]	799.62	–	23.39
[2]	–	1.383	–

CCCCCCCC [octane] + CCCO
Conditions	refractive index, [4]	surface tension liquid-gas, [3] [mN/m]
x1 = 0.0237	1.3835	–
x1 = 0.123	1.3852	22.38
x1 = 0.1859	1.3862	22.05
x1 = 0.2349	1.3869	21.81
x1 = 0.29	1.3877	21.66
x1 = 0.3454	1.3884	21.53
x1 = 0.3547	1.3885	21.51
x1 = 0.4493	1.3896	21.36
x1 = 0.5154	1.3903	21.3
x1 = 0.5218	1.3904	21.29
x1 = 0.6224	1.3914	21.22
x1 = 0.6308	1.3915	21.21
x1 = 0.6938	1.3921	21.21
x1 = 0.7592	1.3927	21.17
x1 = 0.7884	1.393	21.17
x1 = 0.8449	1.3935	21.16
x1 = 0.8918	1.394	21.16
x1 = 0.9245	1.3943	21.16

CCCCCCCO [heptan-1-ol]
Conditions	mass density [kg/m3]	refractive index	surface tension liquid-gas [mN/m]
[1]	818.75	–	26.47
[2]	–	1.4224	–

CCCCO [butan-1-ol]
Conditions	mass density [kg/m3]	refractive index	surface tension liquid-gas [mN/m]
[1]	805.76	–	24.02
[2]	–	1.3973	–

CCCCCCCCO [octan-1-ol] + CCCCCCCC
Conditions	refractive index, [4]	surface tension liquid-gas, [3] [mN/m]
x2 = 0.0641	1.4257	26.39
x2 = 0.12	–	25.83
x2 = 0.1378	1.4231	25.59
x2 = 0.1501	–	25.5
x2 = 0.2923	1.418	24.29
x2 = 0.3168	1.4172	24.11
x2 = 0.3554	1.4159	23.84
x2 = 0.4526	1.4128	23.23
x2 = 0.495	1.4114	23
x2 = 0.5413	1.41	22.76
x2 = 0.6269	1.4072	22.38
x2 = 0.6566	1.4062	22.24
x2 = 0.6897	1.4051	22.12
x2 = 0.7547	1.403	21.88
x2 = 0.8114	1.4012	21.7
x2 = 0.8617	1.3995	21.55
x2 = 0.8832	1.3989	21.51
x2 = 0.9635	1.3961	–

CCCCCO [pentan-1-ol]
Conditions	mass density [kg/m3]	refractive index	surface tension liquid-gas [mN/m]
[1]	810.83	–	24.97
[2]	–	1.408	–

CCCCCO [pentan-1-ol] + CCCCCCCC
Conditions	refractive index, [4]	surface tension liquid-gas, [3] [mN/m]
x2 = 0.0189	1.4075	–
x2 = 0.115	1.4058	23.88
x2 = 0.1459	1.4052	23.6
x2 = 0.1629	1.4049	23.5
x2 = 0.2727	1.403	22.8
x2 = 0.3271	1.4022	22.54
x2 = 0.4586	1.4003	22.06
x2 = 0.4927	1.3999	21.96
x2 = 0.5188	1.3996	21.91
x2 = 0.5951	1.3986	21.75
x2 = 0.655	1.3979	21.65
x2 = 0.6713	1.3977	21.63
x2 = 0.7676	1.3968	21.5
x2 = 0.7932	1.3966	21.46
x2 = 0.834	1.3963	21.41
x2 = 0.8869	1.3958	21.35
x2 = 0.9457	1.3955	21.27

CCCCCCCO [heptan-1-ol] + CCCCCCCC
Conditions	refractive index, [4]	surface tension liquid-gas, [3] [mN/m]
x2 = 0.0616	1.4205	–
x2 = 0.0995	1.4194	25.35
x2 = 0.1699	1.4174	24.68
x2 = 0.1767	1.417	24.63
x2 = 0.2957	1.4136	23.72
x2 = 0.3286	1.4126	23.52
x2 = 0.353	1.4119	23.37
x2 = 0.4567	1.4091	22.79
x2 = 0.4918	1.4081	22.65
x2 = 0.5587	1.4062	22.38
x2 = 0.5956	1.4051	22.24
x2 = 0.6564	1.4036	22.04
x2 = 0.6626	–	22.01
x2 = 0.6629	1.4034	–
x2 = 0.783	1.4002	21.68
x2 = 0.7981	1.3999	21.63
x2 = 0.8409	1.3988	21.53
x2 = 0.9111	1.3971	21.38
x2 = 0.958	–	21.28

CCCCCCCC [octane]
Conditions	mass density [kg/m3]	refractive index	surface tension liquid-gas [mN/m]
[1]	698.5	–	21.17
[2]	–	1.3951	–

CCCCCCO [hexan-1-ol]
Conditions	mass density [kg/m3]	refractive index	surface tension liquid-gas [mN/m]
[1]	815.15	–	25.73
[2]	–	1.4159	–

CCO [ethanol]
Conditions	mass density [kg/m3]	refractive index	surface tension liquid-gas [mN/m]
[1]	785.15	–	21.74
[2]	–	1.3593	–

CCCCCCCC [octane] + CCO
Conditions	mass density [kg/m3]	refractive index	surface tension liquid-gas [mN/m]
[3], x1 = 0.0131	781.56	–	–
[3], x1 = 0.0523	771.81	–	–
[3], x1 = 0.0686	–	–	21.37
[3], x1 = 0.0788	766.05	–	–
[3], x1 = 0.1132	–	–	21.2
[3], x1 = 0.1433	758.82	–	–
[3], x1 = 0.1721	–	–	21.06
[3], x1 = 0.1881	754.27	–	–
[3], x1 = 0.2228	747.52	–	–
[3], x1 = 0.2616	742.94	–	–
[3], x1 = 0.2867	–	–	20.88
[3], x1 = 0.3011	738.29	–	–
[3], x1 = 0.3571	–	–	20.82
[3], x1 = 0.3725	734.06	–	–
[3], x1 = 0.3985	727.44	–	–
[3], x1 = 0.4536	725.27	–	–
[3], x1 = 0.4544	–	–	20.77
[3], x1 = 0.4898	–	–	20.77
[3], x1 = 0.5175	721.13	–	–
[3], x1 = 0.5401	–	–	20.78
[3], x1 = 0.5832	716.94	–	–
[3], x1 = 0.5865	–	–	20.79
[3], x1 = 0.6299	–	–	20.8
[3], x1 = 0.6457	–	–	20.81
[3], x1 = 0.669	–	–	20.84
[3], x1 = 0.6709	713.14	–	–
[3], x1 = 0.7226	708.8	–	–
[3], x1 = 0.765	–	–	20.89
[3], x1 = 0.8041	–	–	20.92
[3], x1 = 0.8191	–	–	20.94
[3], x1 = 0.8201	706.53	–	–
[3], x1 = 0.8707	702.91	–	–
[3], x1 = 0.9095	–	–	21.01
[3], x1 = 0.9212	–	–	21.05
[4], x1 = 0.0686	–	1.3641	–
[4], x1 = 0.1132	–	1.367	–
[4], x1 = 0.1721	–	1.3705	–
[4], x1 = 0.1834	–	1.3711	–
[4], x1 = 0.2867	–	1.3762	–
[4], x1 = 0.35	–	1.3789	–
[4], x1 = 0.3571	–	1.3792	–
[4], x1 = 0.4544	–	1.3827	–
[4], x1 = 0.4898	–	1.3839	–
[4], x1 = 0.5401	–	1.3853	–
[4], x1 = 0.5865	–	1.3866	–
[4], x1 = 0.6299	–	1.3877	–
[4], x1 = 0.6457	–	1.388	–
[4], x1 = 0.669	–	1.3885	–
[4], x1 = 0.765	–	1.3906	–
[4], x1 = 0.8191	–	1.3917	–
[4], x1 = 0.9095	–	1.3934	–
[4], x1 = 0.9212	–	1.3939	–

CCCCCCCCO [octan-1-ol]
Conditions	mass density [kg/m3]	refractive index	surface tension liquid-gas [mN/m]
[1]	821.63	–	27.13
[2]	–	1.4274	–

CCCCCCO [hexan-1-ol] + CCCCCCCC
Conditions	refractive index, [4]	surface tension liquid-gas, [3] [mN/m]
x2 = 0.0515	1.4147	25.19
x2 = 0.0944	1.4136	24.79
x2 = 0.16	1.4119	24.22
x2 = 0.1837	1.4113	24.03
x2 = 0.2785	1.4091	23.38
x2 = 0.3309	–	23.08
x2 = 0.3311	1.4079	–
x2 = 0.4619	1.4049	22.48
x2 = 0.4987	1.404	22.32
x2 = 0.5049	1.4039	22.3
x2 = 0.5984	1.402	22.02
x2 = 0.6717	1.4007	21.83
x2 = 0.7019	1.4	21.74
x2 = 0.7478	1.3992	21.65
x2 = 0.7794	1.3987	21.58
x2 = 0.8504	1.3974	21.45
x2 = 0.895	1.3966	21.38
x2 = 0.959	1.3956	21.25

CCCCCCCC [octane] + CCCCO
Conditions	refractive index, [4]	surface tension liquid-gas, [3] [mN/m]
x1 = 0.0453	1.397	23.65
x1 = 0.113	1.3966	23.15
x1 = 0.1636	1.3964	22.84
x1 = 0.1788	1.3963	22.74
x1 = 0.2956	1.3957	22.2
x1 = 0.3281	–	22.08
x1 = 0.3526	1.3955	21.99
x1 = 0.4467	1.3952	21.73
x1 = 0.4857	1.3951	21.65
x1 = 0.5747	1.3949	21.49
x1 = 0.5886	–	21.49
x1 = 0.6326	1.3948	21.42
x1 = 0.6918	1.3948	21.36
x1 = 0.777	1.3948	21.29
x1 = 0.8167	1.3948	21.28
x1 = 0.865	1.3948	21.24
x1 = 0.9376	1.3949	21.21
